Measurements published in US20070056052A1, “Methods of generating knock-out rodents” (priority 2001, published 2007).
“Also recorded” adds a separate entry of the source.

Columns and labels:
[1] = tested on: male rats (SD, F344, WF); test: Effects of ENU treatment on male rat fertility (breeding to same-strain females); type: in vivo; settings: for % fertile males: weeks 7-26 post-ENU
Protocol: (§1) ENU mutagenesis rat protocol: Pathogen-free inbred Wistar Furth (WF), inbred Fischer-344 (F344) and outbred Sprague Dawley (SD) male and female rats were obtained from Harlan Sprague Dawley, Inc. (Indianapolis, Ind.). All rats were given Teklad Lab Blox chow (Harlan Teklad, Madison, Wis.), acidified water ad libitum, and were housed under a 12-h light/12-h dark cycle. After a one week acclimation period, nine-week-old male rats were administered ENU as a single intraperitoneal injection; for a split dose, rats were injected with ENU once at 9 weeks of age and again at 10 weeks of age. One gram of ENU (Sigma) was dissolved in 10 mls of 95% ethanol and then diluted with 90 mls of phosphate citrate buffer prior to injection. All injections of ENU were given in the morning hours. To characterize the effect of ENU treatment on fertility in the various rat strains, mutagenized males were paired with untreated females of the same strain for consecutive 2-3 week periods, beginning 3-5 weeks after the first ENU treatment and continuing a minimum of 26 weeks post-ENU. We observed female rats for vaginal plugs, gross pregnancy and date of birth/size of litters. For our phenotypic mutant (phenodeviant) rat screening experiments, ENU-treated SD male rats were bred with SD female rats and all F1 pups were visually checked for gross abnormalities in physical development or behavior as compared to littermates at least twice prior to weaning at approximately 21 days of age. A subset of the F1 phenodeviant rats identified was bred to SD rats to determine inheritance of the observed phenotypic mutation. Several of the heritable phenodeviant rat lines are currently being maintained and backcrossed to eliminate residual ENU-induced genetic changes not associated with the phenotypic mutation.
Optimization of ENU dosages: We examined several rat strains, inbred WF and F344 rats and outbred SD rats in which groups of male rats were given either single or split doses of ENU. These male rats were then bred to same-strain female rats at various times post-ENU to test for fertility (Table 1). The three rat strains were unable to regain fertility following large doses of ENU. The WF strain was extremely sensitive to ENU-induced sterility. […] The SD and F344 strains responded in a similar manner with maximum ENU doses of 100-150 mg/kg, allowing for some percentage of rats to remain fertile or recover fertility; however, the F344 strain was more sensitive to split dose protocols compared to the SD rats. […] This phenomenon was also true for the both the F344 and WF rat strains. […] It also appears from the SD and F344 fertility data shown in Table 1 that these rat strains were more likely to remain fertile or regain fertility following a split dose of ENU versus a single dose when the total dose exposure was equal. In addition, average litter size was reduced in both the SD and F344 strains around weeks 1-9 post-ENU (data not shown), the same time period in which we observed reduced fertility in the ENU-treated males.

[2] = tested on: male rats; test: Toxicity and lifespan observation of ENU-treated male rats; type: in vivo, rat
Protocol: as §1, with “For our phenotypic mutant (phenodeviant) rat screening experiments, ENU-treated SD male rats were bred with SD female rats and all F1 pups were visually checked for gross abnormalities in physical development or behavior as compared to littermates at least twice prior to weaning at approximately 21 days of age. A subset of the F1 phenodeviant rats identified was bred to SD rats to determine inheritance of the observed phenotypic mutation. Several of the heritable phenodeviant rat lines are currently being maintained and backcrossed to eliminate residual ENU-induced genetic changes not associated with the phenotypic mutation.” left out

## CCN(N=O)C(N)=O [ENU, N-ethyl-N-nitrosourea]
[1]; F344, 75 mg/kg
  fertility of treated males: All rats remained fertile
[1]; F344, 100 mg/kg given in either a single or split dose
  rats that maintained fertility: about 60%
[1]; F344, single dose 75 mg/kg i.p.
  % fertile males: 100%
[1]; F344, single dose 100 mg/kg i.p.
  % fertile males: 67%
[1]; F344, single dose 120 mg/kg i.p.
  % fertile males: 0%
[1]; F344, split dose 2 × 50 mg/kg
  % fertile males: 60%
[1]; F344, split dose 2 × 60 mg/kg
  % fertile males: 40%
[1]; F344, split dose 2 × 75 mg/kg
  % fertile males: 0%
[1]; F344, split dose 2 × 100 mg/kg
  % fertile males: 0%
[1]; SD and F344 strains
  maximum ENU doses allowing some percentage of rats to remain fertile or recover fertility: 100 to 150 mg/kg
[1]; SD and F344 strains, around weeks 1-9 post-ENU (data not shown)
  average litter size: reduced
[1]; SD, single dose 75 mg/kg i.p.
  % fertile males: 100%
[1]; SD, single dose 100 mg/kg i.p.
  % fertile males: 80%
[1]; SD, single dose 120 mg/kg i.p.
  % fertile males: 33%
[1]; SD, single dose 150 mg/kg i.p.
  % fertile males: 0%
[1]; SD, single dose 200 mg/kg i.p.
  % fertile males: 0%
[1]; SD, split dose 2×50 mg/kg or 2×60 mg/kg, after a brief recovery period
  fertility of treated males: fully fertile
[1]; SD, split dose 2 × 50 mg/kg
  % fertile males: 100%
[1]; SD, split dose 2 × 60 mg/kg
  % fertile males: 100%
[1]; SD, split dose 2 × 75 mg/kg
  % fertile males: 20%
[1]; SD, split dose 2 × 100 mg/kg
  % fertile males: 0%
[1]; WF strain
  maximum total dose after which fertile males were obtained: 50 mg/kg
[1]; WF, 25 mg/kg single injection
  male rats permanently sterilized: approximately 70%
[1]; WF, single dose 25 mg/kg i.p.
  % fertile males: 30%
[1]; WF, single dose 35 mg/kg i.p.
  % fertile males: 33%
[1]; WF, single dose 50 mg/kg i.p.
  % fertile males: 25%
[1]; WF, single dose 75 mg/kg i.p.
  % fertile males: 0%
[1]; WF, single dose 100 mg/kg i.p.
  % fertile males: 0%
[1]; WF, split dose 2 × 15 mg/kg
  % fertile males: 17%
[1]; WF, split dose 2 × 25 mg/kg
  % fertile males: 17%
[1]; WF, split dose 2 × 50 mg/kg
  % fertile males: 0%
[1]; WF, split dose 2 × 75 mg/kg
  % fertile males: 0%
[2]; about one year post-ENU
  lifespan and tumors of fertile mutagenized male rats: shortened, with many developing skin and kidney tumors and lymphomas at approximately one year of age
[2]; all doses of Table 1, SD, F344, WF
  acute toxicity to male rats: none of the ENU doses used were toxic to the male rats; also recorded: None of the doses listed in Table 1 were acutely toxic
